Source: ChEMBL document CHEMBL4130416, “Glycine-replaced derivatives of [Pro3,DLeu9]TL, a temporin L analogue: Evaluation of antimicrobial, cytotoxic and hemolytic activities” (Eur J Med Chem, 2017)
Values after ≈ are worked out from the molar mass of the structure shown. Active and inactive are the calls of the source. The rule behind the calls is not given here. Where a SMILES comes first, the peptide text is derived from it. [ ]: non-standard residue; d: D form.

Legend:
[1] = test system: Staphylococcus epidermidis; test: Antimicrobial activity against Staphylococcus epidermidis ATCC 12228 assessed as membrane-perturbation measured every minute for 120 mins by SYTOX green fluorescence dye influx assay; assay type: functional, organism-based
Acinetobacter baumannii [2] = test: Antimicrobial activity against Acinetobacter baumannii ATCC 19606 assessed as induction of membrane-perturbation at MIC measured every minute for 120 mins by SYTOX green fluorescence dye influx assay; assay type: functional, organism-based; settings: ATCC 19606 = CIP 70.34 = JCM 6841
Candida albicans [3] = test: Antimicrobial activity against Candida albicans ATCC 10231 assessed as induction of membrane-perturbation at MIC measured every minute for 10 mins by SYTOX green fluorescence dye influx assay; assay type: functional, organism-based
Acinetobacter baumannii [4] = test: Antimicrobial activity against Acinetobacter baumannii ATCC 19606 after 18 to 20 hrs by microbroth dilution method; assay type: functional; settings: ATCC 19606 = CIP 70.34 = JCM 6841
Escherichia coli = test: Antimicrobial activity against Escherichia coli D21 after 18 to 20 hrs by microbroth dilution method; assay type: functional
Pseudomonas aeruginosa = test: Antimicrobial activity against Pseudomonas aeruginosa ATCC 27853 after 18 to 20 hrs by microbroth dilution method; assay type: functional
Pseudomonas syringae = test: Antimicrobial activity against Pseudomonas syringae pv tabaci NCPPB 1918 after 18 to 20 hrs by microbroth dilution method; assay type: functional, Pseudomonas amygdali pv. tabaci
Priestia megaterium = test: Antimicrobial activity against Bacillus megaterium Bm11 after 18 to 20 hrs by microbroth dilution method; assay type: functional
Staphylococcus aureus = test: Antimicrobial activity against Staphylococcus aureus Cowan I after 18 to 20 hrs by microbroth dilution method; assay type: functional
[5] = test system: Staphylococcus epidermidis; test: Antimicrobial activity against Staphylococcus epidermidis ATCC 12228 after 18 to 20 hrs by microbroth dilution method; assay type: functional
Candida albicans [6] = test: Antimicrobial activity against Candida albicans ATCC 10231 after 18 to 20 hrs by microbroth dilution method; assay type: functional
Pichia kudriavzevii = test: Antimicrobial activity against Candida krusei ATCC 6258 after 18 to 20 hrs by microbroth dilution method; assay type: functional
HaCaT [7] = test: Cytotoxicity against human HaCaT cells at 12.5 uM after 24 hrs by MTT assay relative to control; assay type: cell-based
HaCaT [8] = test: Cytotoxicity against human HaCaT cells at 25 uM after 24 hrs by MTT assay relative to control; assay type: cell-based
HaCaT [9] = test: Cytotoxicity against human HaCaT cells at 50 uM after 24 hrs by MTT assay relative to control; assay type: cell-based
HaCaT [10] = test: Cytotoxicity against human HaCaT cells at 1.56 to 6.25 uM after 24 hrs by MTT assay; assay type: cell-based
HaCaT [11] = test: Cytotoxicity against human HaCaT cells at 6.25 uM after 24 hrs by MTT assay relative to control; assay type: cell-based

| Compound | Activity [1] | Activity (Acinetobacter baumannii [2]) | Activity (Candida albicans [3]) | MIC (Acinetobacter baumannii [4]) [µM] | MIC (Escherichia coli) [µM] | MIC (Pseudomonas aeruginosa) [µM] | MIC (Pseudomonas syringae) [µM] | MIC (Priestia megaterium) [µM] | MIC (Staphylococcus aureus) [µM] | MIC [5] [µM] | MIC (Candida albicans [6]) [µM] | MIC (Pichia kudriavzevii) [µM] | Activity (HaCaT [7]) [%] | Activity (HaCaT [8]) [%] | Activity (HaCaT [9]) [%] | Activity (HaCaT [10]) | Activity (HaCaT [11]) [%] |
| --- | --- | --- | --- | --- | --- | --- | --- | --- | --- | --- | --- | --- | --- | --- | --- | --- | --- |
| H-FVQWFSKFLGRIL-NH2 | Active | Active | Active | – | – | – | – | – | – | – | – | – | – | – | – | – | – |
| CC[C@H](C)C(NC(=O)[C@H](CCCNC(=N)N)NC(=O)[C@H](CCCCN)NC(=O)[C@@H](CC(C)C)NC(=O)[C@H](Cc1ccccc1)NC(=O)[C@H](CCCCN)NC(=O)[C@H](CO)NC(=O)[C@H](Cc1ccccc1)NC(=O)[C@H](Cc1c[nH]c2ccccc12)NC(=O)[C@@H]1CCCN1C(=O)[C@@H](NC(=O)[C@@H](N)Cc1ccccc1)C(C)C)C(=O)N[C@@H](CC(C)C)C(N)=O (single isomer, unassigned) | – | – | – | 3.12 (≈ 5.25 µg/mL) | 12.5 (≈ 21 µg/mL) | 12.5 (≈ 21 µg/mL) | 6.25 (≈ 10.5 µg/mL) | 3.12 (≈ 5.25 µg/mL) | 6.25 (≈ 10.5 µg/mL) | 3.12 (≈ 5.25 µg/mL) | 1.56 (≈ 2.62 µg/mL) | 1.56 (≈ 2.62 µg/mL) | 49.3 | 66.86 | 96.79 | Non-Toxic | – |
| CCCC[C@@H](NC(=O)[C@@H](CC(C)C)NC(=O)[C@H](Cc1ccccc1)NC(=O)[C@H](CCCCN)NC(=O)[C@H](CO)NC(=O)[C@H](Cc1ccccc1)NC(=O)[C@H](Cc1c[nH]c2ccccc12)NC(=O)[C@@H]1CCCN1C(=O)[C@@H](NC(=O)[C@@H](N)Cc1ccccc1)C(C)C)C(=O)N[C@@H](CCCNC(=N)N)C(=O)NC(C(=O)N[C@@H](CC(C)C)C(N)=O)[C@@H](C)CC (single isomer, unassigned) | – | – | – | 6.25 (≈ 10.4 µg/mL) | 25 (≈ 41.6 µg/mL) | 50 (≈ 83.3 µg/mL) | 3.12 (≈ 5.2 µg/mL) | 1.56 (≈ 2.6 µg/mL) | 3.12 (≈ 5.2 µg/mL) | 3.12 (≈ 5.2 µg/mL) | 3.12 (≈ 5.2 µg/mL) | 1.56 (≈ 2.6 µg/mL) | 39.96 | 72.81 | 96.64 | – | 15 |
| CC[C@H](C)[C@H](NC(=O)[C@H](CCCNC(=N)N)NC(=O)[C@@H]1C[C@@H](O)CN1C(=O)[C@@H](CC(C)C)NC(=O)[C@H](Cc1ccccc1)NC(=O)[C@H](CCCCN)NC(=O)[C@H](CO)NC(=O)[C@H](Cc1ccccc1)NC(=O)[C@H](Cc1c[nH]c2ccccc12)NC(=O)[C@@H]1CCCN1C(=O)[C@@H](NC(=O)[C@@H](N)Cc1ccccc1)C(C)C)C(=O)N[C@@H](CC(C)C)C(N)=O | – | – | – | 6.25 (≈ 10.4 µg/mL) | 25 (≈ 41.6 µg/mL) | 50 (≈ 83.3 µg/mL) | 12.5 (≈ 20.8 µg/mL) | 1.56 (≈ 2.6 µg/mL) | 6.25 (≈ 10.4 µg/mL) | 6.25 (≈ 10.4 µg/mL) | 3.12 (≈ 5.2 µg/mL) | 1.56 (≈ 2.6 µg/mL) | 2.76 | 84.72 | 98.81 | Non-Toxic | – |
| CC[C@H](C)[C@H](NC(=O)[C@H](CCCNC(=N)N)NC(=O)[C@H]1CCCN1C(=O)[C@@H](CC(C)C)NC(=O)[C@H](Cc1ccccc1)NC(=O)[C@H](CCCCN)NC(=O)[C@H](CO)NC(=O)[C@H](Cc1ccccc1)NC(=O)[C@H](Cc1c[nH]c2ccccc12)NC(=O)[C@@H]1CCCN1C(=O)[C@@H](NC(=O)[C@@H](N)Cc1ccccc1)C(C)C)C(=O)N[C@@H](CC(C)C)C(N)=O (H-FVPWFSKF[dL][dP]RIL-NH2) | – | – | – | 50 (≈ 82.5 µg/mL) | 50 (≈ 82.5 µg/mL) | > 50 | 50 (≈ 82.5 µg/mL) | 3.12 (≈ 5.15 µg/mL) | > 50 | 25 (≈ 41.2 µg/mL) | 3.12 (≈ 5.15 µg/mL) | 3.12 (≈ 5.15 µg/mL) | 0 | 0 | 0 | Non-Toxic | – |
